Experimental data published in patent US20230295212A1 (ROME Therapeutics, Inc., priority 2022, published 2023).

Legend:
human PBMC = assay: Decitabine-stimulated human PBMC assay (IFN-β, cell viability); format: cell-based; settings: anti-CD3/anti-CD28, decitabine 10 μM, 5 days
Protocol: EasySep buffer (32 mL, […] Technologies, cat. #20144) was used to dilute 8 mL of LRSC buffy coat (from fresh Leukopak) with gentle mixing. The diluted buffy coat (20 mL) was transferred into each of two SepMate 50 tubes, and the tubes were filled with 15 mL of Lyphoprep ([…], cat. #07851) density gradient. The SepMate tubes were then centrifuged at 1200G for 10 minutes at room temperature with the brake on. The top layer of supernatant was collected in SepMate tubes by quickly pouring it into a new 50 mL conical tube. The PBMCs were washed with EasySep buffer ×2 by centrifuging at 300G for 5 minutes. The cells were resuspended in 30 mL of EasySep and centrifuged at 100G for 5 minutes with the brake off, and the platelets were removed. The cells were then resuspended in 6 mL of 1×RBC lysis buffer (Invitrogen) and incubated at 37° C. for 5 minutes. 25 mL of EasySep buffer was then mixed into the tube and centrifuged at 300G for 5 minutes. The cells were resuspended in 10 mL of EasySep buffer and the cells were then counted with Cellometer (AO/PI). The PBMCs were resuspended in RPMI1640 (ThermoFisher)^+10% FBS (HyClone)^+μ/s at 3×10^6/mL. The PBMCs (100 μL, 300 k PBMCs) were then seeded in a 96-well flat bottom microplate (Corning) that had been precoated with 100 μL of anti-CD3 antibody (10 μg/mL in PBS, Biolegend) or PBS at 4° C., one day before the assay was commenced.
To each well the following solutions were added 1) 100 μL of cells (final cell number per well is 3×10^5 cell/well); 2) 25 μL of anti-CD28 antibody at 6×(5 μg/mL final concentration, Biolegend); 3) 25 μL of decitabine at 6×(10 μM final concentration); and 4) Compound in DMSO was dispensed directly into each well with a d300e digital dispenser (Tecan). The final concentration of DMSO for each well was normalized to 0.3%. The plate was incubated at 37° C. without any agitation for 5 days. Samples were collected 120 hours after incubation to determine IFN-0 and IL-2 levels using a U-PLEX Human IFN-β Assay Sector (5PL) (MSD, cat. #K151VIK-2).
After 5 days, the plate was spun down at 100×G for 5 minutes. Supernatants (100 μL) were collected for interferon β(IFN-β) analysis using the MSD assay noted above, and any residual supernatant was stored at −80° C.

[1] = system: interferon-stimulated gene (ISG) response; assay: In vivo decitabine challenge model in C57BL/6 mice (ISG response); set-up: species or system mouse; settings: decitabine i.p. 5 mg/kg
Protocol: Exemplary compounds were tested for ability to alter the interferon-stimulated gene (ISG) response in C57BL/6 mice treated with decitabine. Assay procedures and results are described below. Twenty 9-11 week old C57BL/6 mice were acclimated to the lab for at least 5 days. Compound 23 was prepared in a 0.5% methylcellulose solution for p.o. administration. Decitabine (Sigma-Aldrich) was dissolved in sterile PBS (pH 7.4) and dosed within 30 minutes of preparation of the solution. Doses of both the compound and decitabine were administered once a day, every day from Day 0 to Day 4. On Day 0, mice were split into five groups of five mice and given their first dose of decitabine (i.p., 5 mg/kg) and compound 23. Dosing groups were: Decitabine and compound 23 were administered daily from Day 0 to Day 4. All mice were euthanized 1 hour after the last dose administration on Day 4. Spleens, liver, and terminal colon were collected, along with plasma from each animal. The fold changes in interferon-stimulated gene (ISG) expression was calculated by first normalizing to GAPDH gene using the Delta CT method. The CT (gene of interest)—CT (reference gene) was calculated to generate a delta CT for all samples. The fold change was then calculated by taking the Log2(Delta CT(control)—Delta CT (experimental). The control in this example was the PBS control animal group. The Taqman duplex assay was used to determine levels of GAPDH v. IFIT2. Twenty 9-11 week old C57BL/6 mice were acclimated to the lab for at least 5 days. Compound 2 was prepared in 20% PEG400 in PBS (final pH 4.5) for p.o. administration. Decitabine (Sigma) was dissolved in sterile PBS (pH 7.4) and dosed within 30 minutes of preparation of the solution. Doses of both Compound 2 and decitabine were administered once a day. On Day 0, mice were split into five groups of five mice and given their first dose of decitabine and Compound 2. […] The fold changes in interferon-stimulated gene (ISG, specifically IRF7 and MX1) expression was calculated by first normalizing to GAPDH gene using the Delta CT method. […]

## Nc1ccn([C@H]2C[C@H](O)[C@](CO)(CCl)O2)c(=O)n1 [Compound 2, 4-amino-1-((2R,4S,5R)-5-(chloromethyl)-4-hydroxy-5-(hydroxymethyl)tetrahydrofuran-2-yl)pyrimidin-2(1H)-one]
Human PBMC
  IFN-β level: inhibition of IFN-0
[1]; compound p.o. 0.6, 2.0, 6.0 mg/kg daily Day 0 to Day 4, IFIT2 v. GAPDH
  change in interferon-stimulated gene (ISG) response (FIG. 2A): change in ISG response
[1]; compound p.o. 1, 10, 100 mg/kg daily, kidneys, IRF7 and MX1
  change in interferon-stimulated gene (ISG) response (FIGS. 2B and 2C): change in the ISG response
